Source: PMC7887271, “Fast acting allosteric phosphofructokinase inhibitors block trypanosome glycolysis and cure acute African trypanosomiasis in mice” (Nature Communications, 2021)
Values joined by “and” are separate entries in the source; they are usually repeats but may differ in a detail not shown here. Equal values may be shown once.

What was measured:
T. b. brucei GVR35-Luc2 = T. b. brucei GVR35-Luc2 time-to-kill assay (luciferin); format: cell-based; settings: for Luminescence, Average / Luminescence, individual replicates: Time to kill assay for GVR35 cells
Procedure: Enzyme activity was measured using an aldolase/TIM linked assay at 25 °C. […] Experiments were carried out in duplicate. Data are presented as mean values ± standard deviation. […] Source data are provided as a Source Data File. b Kill time of CTCB-405 compared with existing HAT drugs in the clinic. […] Over 99% of trypanosomes were killed in under 30 min compared with much slower killing rates for the other drugs. The points on the graph for CTCB-405 were determined from two independent biological replicate experiments with each time point measured twice (using duplicate technical replicates). The ESD for each point on the graph is between 0.7 and 1.4%. For drugs in clinical use each point on the graph is the average of two technical replicates from one experiment (with a maximum difference of 7.8% for any of the points). Source data are provided as a Source Data File.
As predicted from the biology of the BSF that relies wholly on glycolysis for ATP production, inhibition of the pathway results in a very fast TTK. Two experimental methods were used to measure ATP levels as a real-time indicator of viability. For Tb427 parasites, a Cell Titre Glo kit was used and for the TbGVR35 bioluminescent strain, killing was assessed by adding luciferin which requires ATP to produce a luminescent signal (Supplementary Methods 4.3 and 4.4). […] The BSF of T. brucei cannot produce ATP by oxidative phosphorylation and is solely dependent on flux through the glycolytic pathway. The clear correlation between inhibitor dose and reduction in ATP production, as observed in the TTK assays strongly supports the proposed mode of action of the CTCB compounds is by blocking glycolysis. It is a long-established experimental observation that withdrawal of glucose nutrient leads to rapid loss of motility and cell death. It has recently been shown that the BSF of T. brucei can proliferate on high levels of glycerol; however, we have shown that addition of glycerol to the medium has little effect on parasite killing by the CTCB compounds (Supplementary Table 3).
The killing of T. b. brucei GVR35-Luc2 was assessed by adding D-luciferin to live cells resulting in the production of light in the presence of ATP and luciferase activity. Compounds of interest were serially diluted from 16 µM to 0.5 µM in Modified HMI-9 medium and added into sterile white, flat bottom 96-well plate (Greiner Inc.). 32,000 trypanosomes were added to each well. The plates were incubated at 37 °C and 5% CO2. At the end of each incubation, 200 µg/ml of D-luciferin was added to each well and incubated for 10 min. Luminescence was measured using a BMG plate reader and percentage cell viability versus incubation time was determined.

T. b. brucei GVR35-luc = assay: Wash-out studies, GVR35; format: cell-based; settings: concentrations greater than 2 to 4 µM, exposure longer than 4-6 hours, 3 days in drug free medium
Procedure: In vitro ‘wash-out’ studies were performed to determine the reversibility of the action of the CTCB compounds on trypanosomes, after a certain exposure time, and thus to assess whether the compounds have a trypanocidal or trypanostatic effect. These experiments were carried out with both the T. b. brucei Lister 427 and T. b. brucei GVR35-luc strains. Trypanosomes at a density of 500,000 cells/ml in culture medium were incubated with CTCB compounds at varying concentrations in 12-well plates in volumes of 1 ml for different periods of time at 37°C. Subsequently, the cultures were centrifuged for 5 min at 2600 x g, the cells washed by re-suspending the pellets in 1 ml medium without inhibitors, centrifuged again and re-suspended in 1 ml fresh medium. The cell suspensions were then incubated under regular culture conditions for 3 days and parasite growth monitored daily by light microscopy.
The results for both strains are similar with no grow-back at concentrations of CTCB compounds greater than 2 to 4 µM with drug exposure longer than 4-6 hours.

MDCK-MDR1 = settings: dog
T. b. brucei Lister 427 = assay: Wash-out studies, Lister 427; format: cell-based; settings: concentrations greater than 2 to 4 µM, exposure longer than 4-6 hours, 3 days in drug free medium
Procedure: In order to estimate a killing-dose for in vivo trials, a series of washout experiments were carried out: parasites were incubated with a given concentration of compound before washing out the drug and determining whether the parasites were still viable and able to proliferate. […] The existence of a small population of parasites more resistant to the effects of the CTCB compounds might be explained by subpopulations of parasites being present at different stages of the cell cycle. The parasite cultures used in the killing experiments are not synchronised, and it is likely that ATP requirement varies depending on cell cycle phase and a subpopulation with lower ATP requirement may be less susceptible to the CTCB compounds, however, this phenomenon needs further investigation.
In vitro ‘wash-out’ studies were performed to determine the reversibility of the action of the CTCB compounds on trypanosomes, after a certain exposure time, and thus to assess whether the compounds have a trypanocidal or trypanostatic effect. These experiments were carried out with both the T. b. brucei Lister 427 and T. b. brucei GVR35-luc strains. […] The cell suspensions were then incubated under regular culture conditions for 3 days and parasite growth monitored daily by light microscopy. […]

[1] = GVR35 TTK, 24 h incubation, replicate wells

CNCCn1ccc2c(ccn2Cc2ccc(Cl)c(Cl)c2)c1=O [CTCB-435]
% Cell viability, single replicates (T. b. brucei GVR35-Luc2; 0.5 h): 0.549% and -0.0671%
% Inhibition, single replicates (T. b. brucei GVR35-Luc2; 0.5 h): 99% and 100%
% Cell viability (T. b. brucei GVR35-Luc2; 0.5 h, average): 0.247% and 0.241%
% Inhibition (T. b. brucei GVR35-Luc2; 0.5 h, mean, suramin, fexinidazole, SCYX-7158 11 µM, CTCB-405 4 µM): 100%
% Cell viability, single replicates (T. b. brucei GVR35-Luc2; 1 h): -0.883% and -0.918%
% Inhibition, single replicates (T. b. brucei GVR35-Luc2; 1 h): 101%
% Inhibition (T. b. brucei GVR35-Luc2; 1 h, mean, suramin, fexinidazole, SCYX-7158 11 µM, CTCB-405 4 µM): 101%
% Cell viability, single replicates (T. b. brucei GVR35-Luc2; 2 h): -0.287% and -0.261%
% Inhibition, single replicates (T. b. brucei GVR35-Luc2; 2 h): 100%
% Cell viability (T. b. brucei GVR35-Luc2; 2 h, average): -0.274%
% Inhibition (T. b. brucei GVR35-Luc2; 2 h, mean, suramin, fexinidazole, SCYX-7158 11 µM, CTCB-405 4 µM): 100%
% Cell viability, single replicates (T. b. brucei GVR35-Luc2; 4 h): -0.785% and -0.904%
% Inhibition, single replicates (T. b. brucei GVR35-Luc2; 4 h): 101%
% Cell viability (T. b. brucei GVR35-Luc2; 4 h, average): -0.843% and 0% and -0.844%
% Inhibition (T. b. brucei GVR35-Luc2; 4 h, mean, suramin, fexinidazole, SCYX-7158 11 µM, CTCB-405 4 µM): 101%
% Cell viability, single replicates (T. b. brucei GVR35-Luc2; 6 h): -0.726% and -0.643%
% Inhibition, single replicates (T. b. brucei GVR35-Luc2; 6 h): 101%
% Cell viability (T. b. brucei GVR35-Luc2; 6 h, average): -0.684%
% Inhibition (T. b. brucei GVR35-Luc2; 6 h, mean, suramin, fexinidazole, SCYX-7158 11 µM, CTCB-405 4 µM): 101%
% Cell viability, single replicates (T. b. brucei GVR35-Luc2; 8 h): -0.436% and -0.367%
% Inhibition, single replicates (T. b. brucei GVR35-Luc2; 8 h): 100%
% Cell viability (T. b. brucei GVR35-Luc2; 8 h, average): -0.401%
% Inhibition (T. b. brucei GVR35-Luc2; 8 h, mean, suramin, fexinidazole, SCYX-7158 11 µM, CTCB-405 4 µM): 100%
% Cell viability, Average (T. b. brucei GVR35-Luc2; GVR35 TTK, 24 h incubation, average): -0.136%
Luminescence (medium-subtracted), Average (T. b. brucei GVR35-Luc2; GVR35 TTK, 24 h incubation, average of replicates): -47.5
% Inhibition (T. b. brucei GVR35-Luc2; GVR35 TTK, 24 h incubation, from average): 100%
% Cell viability, individual replicates (T. b. brucei GVR35-Luc2; [1]): -0.139% and -0.134%
% Inhibition, individual replicates (T. b. brucei GVR35-Luc2; [1]): 100%
Luminescence (medium-subtracted), individual replicates (T. b. brucei GVR35-Luc2; [1]): -66.5 and -28.5
% Cell viability (T. b. brucei GVR35-Luc2; GVR35 TTK, 24 h sheet, summary line marked "4"): -0.137%
Luminescence, Average (T. b. brucei GVR35-Luc2; 0.5 hour incubation): 71
Luminescence, individual replicates (T. b. brucei GVR35-Luc2; 0.5 hour incubation): 100 and 43
Luminescence, Average (T. b. brucei GVR35-Luc2; 1hour incubation): 2
Luminescence, individual replicates (T. b. brucei GVR35-Luc2; 1hour incubation): 3 and 1
Luminescence, Average (T. b. brucei GVR35-Luc2; 2hour incubation): 50
Luminescence, individual replicates (T. b. brucei GVR35-Luc2; 2hour incubation): 49 and 50
Luminescence, Average (T. b. brucei GVR35-Luc2; 4hour incubation): -42
Luminescence, individual replicates (T. b. brucei GVR35-Luc2; 4hour incubation): -34 and -51
Luminescence, Average (T. b. brucei GVR35-Luc2; 6hour incubation): -65
Luminescence, individual replicates (T. b. brucei GVR35-Luc2; 6hour incubation): -78 and -51
Luminescence, Average (T. b. brucei GVR35-Luc2; 8hour incubation): -1.5
Luminescence, individual replicates (T. b. brucei GVR35-Luc2; 8hour incubation): -12 and 9
Luminescence, Average (T. b. brucei GVR35-Luc2; 24hour incubation): -48
Luminescence, individual replicates (T. b. brucei GVR35-Luc2; 24hour incubation): -67 and -29

CN(C)CCn1ccc2c(ccn2Cc2ccc(Cl)c(Br)c2)c1=O [CTCB-470, 1-[(3-Bromo-4-chlorophenyl)methyl]-5-[2-(dimethylamino)ethyl] pyrrolo[3,2-c]pyridin-4-one]
wash-out: grow-back after removal of drug (T. b. brucei GVR35-luc): no grow-back
MDCK-MDR1 A-B (MDCK-MDR1): 34.9
MDCK-MDR1 B-A (MDCK-MDR1): 28.3
wash-out: grow-back after removal of drug (T. b. brucei Lister 427): no grow-back
